PubChem BioAssay AID328 (DTP/NCI, 2004)
Several values for one entry are separate records, joined by “and”; a condition that tells them apart may be missing. Equal entries are not always repeated. Inconclusive results and toxic doses are left out. The calls were made as follows: active = survival T/C of 150% or more; inactive = T/C below 125% in these data.

Tested on: BDF1 mice, P388 leukemia ip, median survival T/C
Assay: NCI In Vivo Anticancer Drug Screen. Data for tumor model P388 Leukemia (intraperitoneal) in B6D2F1 (BDF1) mice
Conditions: endpoint: median survival time, higher = longer survival
In short: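 Antitumour effect was judged in vivo: survival in drug-treated mice, normalised to that of vehicle-dosed controls, gives the reported T/C.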

[1] = dose: 25.0 mg/kg/injection, schedule: Q01DX009 (ip), vehicle: saline with Tween-80
[2] = dose: 50.0 mg/kg/injection, schedule: Q01DX009 (ip), vehicle: saline with Tween-80
[3] = dose: 100.0 mg/kg/injection, schedule: Q01DX009 (ip), vehicle: saline with Tween-80

Measured: T/C

N[C@@H](Cc1ccc(N(CCCl)CCCl)cc1)C(=O)O
active: dose: 0.5 mg/kg/injection, schedule: Q01DX009 (ip), vehicle: saline 167 % of control | dose: 0.5 mg/kg/injection, schedule: Q01DX010 (ip), vehicle: saline 227 % of control | dose: 1.0 mg/kg/injection, schedule: Q01DX009 (ip), vehicle: saline 245 % of control and 188 % of control | dose: 1.0 mg/kg/injection, schedule: Q01DX010 (ip), vehicle: saline 277 % of control | dose: 2.0 mg/kg/injection, schedule: Q01DX009 (ip), vehicle: saline 237 % of control and 254 % of control | dose: 2.0 mg/kg/injection, schedule: Q01DX010 (ip), vehicle: saline 300 % of control | dose: 2.5 mg/kg/injection, schedule: Q04DX003 (ip), vehicle: water 205 % of control | dose: 3.6 mg/kg/injection, schedule: Q01DX001 (ip), vehicle: saline 150 % of control and 181 % of control | dose: 4.0 mg/kg/injection, schedule: Q04DX003 (ip), vehicle: Klucel (hydroxypropylcellulose) (HPC) 236 % of control | dose: 6.0 mg/kg/injection, schedule: Q01DX001 (ip), vehicle: saline 167 % of control and 172 % of control | dose: 10.0 mg/kg/injection, schedule: Q01DX001 (ip), vehicle: Klucel (hydroxypropylcellulose) (HPC) 227 % of control and 245 % of control | dose: 12.5 mg/kg/injection, schedule: Q01DX001 (ip), vehicle: Klucel (hydroxypropylcellulose) (HPC) 240 % of control and 279 % of control | dose: 15.0 mg/kg/injection, schedule: Q01DX001 (ip), vehicle: Klucel (hydroxypropylcellulose) (HPC) 295 % of control and 298 % of control | dose: 17.5 mg/kg/injection, schedule: Q01DX001 (ip), vehicle: Klucel (hydroxypropylcellulose) (HPC) 286 % of control and 318 % of control | dose: 20.0 mg/kg/injection, schedule: Q01DX001 (ip), vehicle: Klucel (hydroxypropylcellulose) (HPC) 254 % of control and 259 % of control
inactive: dose: 4.0 mg/kg/injection, schedule: Q01DX009 (ip), vehicle: saline 113 % of control | dose: 4.0 mg/kg/injection, schedule: Q01DX010 (ip), vehicle: saline 113 % of control | dose: 40.0 mg/kg/injection, schedule: Q04DX003 (ip), vehicle: water 91 % of control and 96 % of control

CCOC(=O)c1cc[nH]c1CC(=O)NCc1ccccc1
inactive: dose: 100.0 mg/kg/injection, schedule: Q01DX001 (ip), vehicle: saline with Tween-80 97 % of control | dose: 200.0 mg/kg/injection, schedule: Q01DX001 (ip), vehicle: saline with Tween-80 118 % of control | dose: 400.0 mg/kg/injection, schedule: Q01DX001 (ip), vehicle: saline with Tween-80 103 % of control

Nc1nc2c(c(=O)[nH]1)N(CCS(=O)(=O)F)C(CNc1ccc(C(=O)NC(CCC(=O)O)C(=O)O)cc1)CN2 (centres undefined)
inactive: dose: 50.0 mg/kg/injection, schedule: Q04DX003 (ip), vehicle: sodium bicarbonate 105 % of control | dose: 100.0 mg/kg/injection, schedule: Q04DX003 (ip), vehicle: sodium bicarbonate 99 % of control | dose: 200.0 mg/kg/injection, schedule: Q04DX003 (ip), vehicle: sodium bicarbonate 99 % of control

S=C1CCNCC1
inactive: dose: 12.5 mg/kg/injection, schedule: Q01DX009 (ip), vehicle: saline 95 % of control | dose: 25.0 mg/kg/injection, schedule: Q01DX009 (ip), vehicle: saline 86 % of control | dose: 50.0 mg/kg/injection, schedule: Q01DX009 (ip), vehicle: saline 100 % of control

Cc1ccc(C(=O)O)cc1S(=O)(=O)F
inactive: [1] 114 % of control | [2] 104 % of control | dose: 50.0 mg/kg/injection, schedule: Q04DX003 (ip), vehicle: saline with Tween-80 101 % of control | [3] 98 % of control | dose: 100.0 mg/kg/injection, schedule: Q04DX003 (ip), vehicle: saline with Tween-80 102 % of control | dose: 200.0 mg/kg/injection, schedule: Q01DX009 (ip), vehicle: saline with Tween-80 104 % of control | dose: 200.0 mg/kg/injection, schedule: Q04DX003 (ip), vehicle: saline with Tween-80 101 % of control | dose: 300.0 mg/kg/injection, schedule: Q01DX009 (ip), vehicle: saline with Tween-80 110 % of control | dose: 400.0 mg/kg/injection, schedule: Q01DX009 (ip), vehicle: saline with Tween-80 123 % of control | dose: 400.0 mg/kg/injection, schedule: Q04DX003 (ip), vehicle: saline with Tween-80 101 % of control

Clc1[nH]nc2ccccc12
inactive: dose: 12.5 mg/kg/injection, schedule: Q01DX009 (ip), vehicle: saline with Tween-80 91 % of control | [1] 87 % of control | [2] 95 % of control | dose: 50.0 mg/kg/injection, schedule: Q04DX003 (ip), vehicle: saline sonified 90 % of control | [3] 100 % of control | dose: 100.0 mg/kg/injection, schedule: Q04DX003 (ip), vehicle: saline sonified 90 % of control | dose: 200.0 mg/kg/injection, schedule: Q04DX003 (ip), vehicle: saline sonified 90 % of control
